Data from publication PMC11940194, “Synthesis, Antiproliferative Activity, and ADME Profiling of Novel Racemic and Optically Pure Aryl-Substituted Purines and Purine Bioisosteres” (Biomolecules, 2025).
“Also recorded” adds a separate entry of the source.

Experiments:
[1] = test system: normal skin fibroblasts (HFF-1); experiment: Cytotoxicity MTT assay, normal skin fibroblasts; format: cell-based, human; conditions: Homo sapiens, HFF-1, 72 h, 72 h incubation, mean ± SD
Summary of the method: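 Cells grown in DMEM or MEM with 10% FBS at 37 °C, 5% CO2; tumour lines seeded at 3000 and fibroblasts at 5000 cells/well. Compounds added at 0.01 to 100 µM for 72 h, growth read by MTT. IC50 from dose–response curves by linear regression, tetraplicates, two experiments.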

[2] = test system: MCF-7, CFPAC-1, HT-29, HepG2 tumor cell lines and HFF-1 fibroblasts; experiment: Antiproliferative activity, whole cell line panel; format: cell-based, human; conditions: tested cell lines
Protocol: The human ATCC tumor cell lines breast adenocarcinoma (MCF7), colorectal carcinoma (HT-29), pancreatic ductal adenocarcinoma (CFPAC-1), hepatocellular carcinoma (HepG2), and normal skin fibroblasts (HFF) derived from ATCC (American Type Culture Collection) were cultured in Dulbecco’s Modified Eagle Medium (DMEM) or Minimum Essential Medium (MEM) supplemented with 10% fetal bovine serum (FBS), 2 mM L-glutamine, 100 U/mL penicillin, and 100 µg/mL streptomycin (Lonza, Basel, Switzerland) in a humidified atmosphere with 5% CO2 at 37 °C. For the experiment, carcinoma cell lines and normal human cell lines were seeded in 96-well microtiter plates at a density of 3000 cells per well and 5000 cells per well, respectively, depending on the doubling time of the specific cell line. The test substances were then added at fivefold, tenfold dilutions (0.01 to 100 µM), freshly prepared in the growth medium on the day of testing, and incubated for a further 72 h. After 72 h of incubation, the growth rate of the cells was determined using the MTT assay according to the manufacturer’s guidelines. […] The IC50 values were calculated from the dose–response curves using linear regression analysis. The experiment was performed in tetraplicates in two individual experiments.
Newly synthesized compounds were evaluated for their cytotoxic activity in vitro against four human cancer cell lines, including human breast adenocarcinoma (MCF-7), ductal pancreatic adenocarcinoma (CFPAC-1), colorectal carcinoma (HT-29), and hepatocellular carcinoma (HepG2), as well as on non-cancerous skin fibroblasts (HFF-1), to check for non-specific toxicity. Furthermore, 5-Fluorouracil (5-FU) was used as a reference drug. The results are expressed as 50% inhibitory concentration (IC50) values and are listed in Table 2, Table 3, Table 4 and Table 5.

[3] = test system: MDCKII-MDR1 cells (P-glycoprotein); experiment: MDCKII-MDR1 permeability assay; format: in vitro ADME, canine cells with over-expressed human MDR1 gene; conditions: permeability class
Summary of the method: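 Bidirectional transport across MDCKII cells overexpressing human MDR1, compounds 10 µM (1% DMSO) for 60 min at 37 °C, with and without 2 µM elacridar. Monolayer integrity checked by Lucifer yellow; compound concentrations quantified by LC-MS/MS (MRM).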

[4] = Metabolic stability in mouse liver microsomes; format: in vitro ADME
Text: Mouse liver microsomes were obtained from Corning Life Sciences (Corning, NY, USA). DMSO, nicotinamide adenine dinucleotide phosphate (NADP), glucose-6-phosphate, glucose-6-phosphate dehydrogenase, magnesium chloride, propranolol, caffeine, diclofenac, and phosphate-buffered saline (PBS) were purchased from Sigma (St. Louis, MO, USA). Acetonitrile (ACN) and methanol (MeOH) were obtained from Merck (Darmstadt, Germany). Testosterone was purchased from Steraloids (Newport, RI, USA). Metabolic stability was assessed in mouse liver microsomes. Compounds (final concentration of 1 µM, 0.03% DMSO v/v) were incubated in duplicate in phosphate buffer (50 mM, pH 7.4) at 37 °C together with mouse liver microsomes in the absence and presence of the NADPH cofactor (0.5 mM nicotinamide adenine dinucleotide phosphate, 5 mM glucose-6-phosphate, 1.5 U/mL glucose-6-phosphate dehydrogenase, and 0.5 mM magnesium chloride). Incubation and sampling were performed on a Freedom EVO 200 (Tecan, Männedorf, CH, Switzerland) at […], 10, 20, 30, 45, and 60 min. The reaction was quenched using 3 volumes of a mixture of ACN/MeOH (2:1) containing internal standard (diclofenac), centrifuged, and the supernatants were analyzed using LC-MS/MS. The metabolic activity of the microsomes was verified via simultaneous analysis of several controls including testosterone, propranolol, and caffeine. The in vitro half-life (t1/2) was calculated using GraphPad Prism (v9.0 software) non-linear regression of % of parent compound remaining versus time. In vitro clearance, expressed as µL/min/mg, was estimated from the in vitro half-life (t1/2) and normalized for the protein amount in the incubation mixture, assuming 52.5 mg of protein per gram of liver and using constant values for mouse liver weight/body weight [87.5 g/kg] and mouse liver blood flow (LBF) [131 mL/min/kg].
All samples were quantified using tandem mass spectrometry coupled to liquid chromatography. Samples were analyzed on a Sciex API4000 Triple Quadrupole Mass Spectrometer (Sciex, Division of MDS Inc., Toronto, Canada) coupled to a Shimadzu Nexera X2 UHPLC frontend (Kyoto, Japan). Samples were injected onto a UHPLC column (HALO2 C18, 2.1 × 20 mm, 2 µm or Luna Omega 1.6 µm Polar C18 100A, 30 × 2.1 mm) and eluted with a gradient at 50 °C. The mobile phase was composed of acetonitrile/water mixture (9/1, with 0.1% formic acid) and 0.1% formic acid in deionized water. The flow rate was 0.7 mL/min under gradient conditions, leading to a total run time of 1.5–2 min. A positive ion mode with turbo spray, an ion source temperature of 550 °C, and a dwell time of 150 ms were utilized for mass spectrometric detection. Quantitation was performed using multiple reaction monitoring (MRM) at the specific transitions for each compound.

SMILES | IC50 [1] [µM] | antiproliferative activity (in words) [2] | Permeability [3] | Clearance Values (CL) ([4]; predicted in vivo hepatic clearance from mouse liver microsome t1/2, 1 µM compound) [%] | Clearance Class. ([4]; mouse liver microsomes)
OCC(c1ccc(C(F)(F)F)cc1)n1cc(Cn2ccc3c(Cl)ncnc32)nn1 (stereo not drawn) [Compound 45a, 4-Chloro-7-((1-(2-hydroxy-1-(4-(trifluoromethyl)phenyl)ethyl)-1H-1,2,3-triazol-4-yl)methyl)-7H-pyrrolo[2,3-d]pyrimidine] | 20 ± 4.7 | submicromolar antiproliferative activity | good membrane permeability; also recorded: MODERATE | 54 | –
OC(Cn1cc(Cn2cnc3c(Cl)nccc32)nn1)c1ccc(Br)cc1 (stereo not drawn) [Compound 49b, 4-Chloro-1-((1-(2-hydroxy-2-(4-bromophenyl)ethyl)-1H-1,2,3-triazol-4-yl)methyl)-1H-imidazo[4,5-c]pyridine] | 21 ± 5.8 | – | – | – | LOW (<30% low)
